Measurements from PMC7979765, “trans-Translation inhibitors bind to a novel site on the ribosome and clear Neisseria gonorrhoeae in vivo” (Nature Communications, 2021).
Converted amounts (≈) assume the structure as drawn. “And” between values parts separate entries of the source, which are not always exact repeats. Equal entries are not always repeated.

Tests used:
[1] = test system: Escherichia coli; assay: microbe, parasite or virus in culture; assay type: cell-based; details: E. coli KLE701 (ΔtolC::tet); source data, individual replicates
[2] = test system: HeLa cells; assay: Mammalian cell cytotoxicity (CC50); assay type: cell-based, human; details: HeLa, replicates
Experimental: The half maximal cytotoxic concentration (CC50) of each compound against HeLa cells (ATCC CCL-2) was measured as previously described. […] The mean values for each biological replicate were averaged, and the CC50 was determined using a 4-parameter nonlinear curve fitting algorithm (GraphPad Prism). The average of the CC50s from two biological replicates was calculated and reported.

[3] = Liver microsome stability, murine; assay type: in vitro ADME, mouse; details: murine liver microsomes; for Average MLMS t½: average of replicates; for MLMS t½: individual replicates
Experimental: To examine potential for first-pass metabolism of analogs in the liver, the stability of analogs in the presence of liver microsome preparations (Eurofins Discovery for human, dog and rat; Xenotech for mouse) was measured using the method of Kuhnz, et al.[50]. for murine studies and Oback for the dog, human and rat studies. The amount of parent compound remaining after incubation with microsomes in the presence of NADPH over a 30 min time range was measured using a reverse-phase liquid chromatography/mass spectroscopy method that was customized for each compound. Half-lives were calculated using linear regression analysis of several time points.

[4] = test system: HeLa cells; assay: Mammalian cell cytotoxicity (CC50); assay type: cell-based, human; details: one value per replicate
[5] = test system: trans-translation; assay: microbe, parasite or virus in culture; assay type: cell-based, Escherichia coli; details: for IC50: Eco Luc reporter, one value per replicate, read-out: IC50; for Luminescence readout (Envision plate reader) / Luminescence, background subtracted (DMSO control): per replicate
Experimental: To verify that MBX-4132 retains activity as an inhibitor of trans-translation, we measured its dose-dependent activity against the non-stop luciferase reporter assay strain E. coli SB75 ΔtolC::kan (pluc-trpAt) essentially as described, with modifications. Briefly, serial 1.5-fold dilutions of MBX-4132 in DMSO were transferred to 96-well assay plates (Costar 3195), followed by the addition of 50 µl of an overnight culture of SB75 ΔtolC::kan (pluc-trpAt) that had been diluted to a final OD600 of 0.4 with LB media supplemented with 100 µg ampicillin/ml and 1 mM IPTG. […] The assay plates were incubated at room temperature for 2 h, and 50 µl of BrightGlo (Promega) bioluminescence reagent was added to each well. After 10 min incubation, bioluminescence intensity was measured using an Envision multi-label plate reader (Perkin Elmer). Each assay comprised three technical replicates, and the experiment was repeated three times. The fold induction for each MBX-4132 treated sample as compared to the DMSO-only sample was calculated for each technical replicate, and the average and standard deviation of the three technical was calculated. The IC50 was determined using a 4-parameter nonlinear curve fitting algorithm (GraphPad Prism).

[6] = Aqueous solubility (nephelometric); assay type: physicochemical; details: for Solubility: single replicates
[7] = test system: Neisseria gonorrhoeae; assay: MIC, microbroth dilution, G77L medium; assay type: cell-based; details: Neisseria gonorrhoeae ATCC 49226; source data, individual replicates

Row | Structure (SMILES) | MIC [1] | NORMALIZED DATA (Fraction DMSO Control) ([2]; [CMPD] 0.78125 µM) | NORMALIZED DATA (Fraction DMSO Control) ([2]; [CMPD] 1.5625 µM) | NORMALIZED DATA (Fraction DMSO Control) ([2]; [CMPD] 3.125 µM) | NORMALIZED DATA (Fraction DMSO Control) ([2]; [CMPD] 6.25 µM) | NORMALIZED DATA (Fraction DMSO Control) ([2]; [CMPD] 12.5 µM) | NORMALIZED DATA (Fraction DMSO Control) ([2]; [CMPD] 25 µM) | NORMALIZED DATA (Fraction DMSO Control) ([2]; [CMPD] 50 µM) | NORMALIZED DATA (Fraction DMSO Control) ([2]; [CMPD] 100 µM) | Average MLMS t½ [3] [min] | MLMS t½ [3] | CC50 [4] | IC50 [5] | Average solubility [6] [µM] | Solubility [6] [µM] | MIC [7] | other results
1 | Fc1ccc(-c2nnc(NCc3ccc(Cl)cc3)o2)cc1 [MBX-3776] | >=30.372 µg/ml | 0.9425 Fraction DMSO Control and 0.9291 Fraction DMSO Control and 1.002 Fraction DMSO Control and 0.9674 Fraction DMSO Control and 0.9349 Fraction DMSO Control and 0.9583 Fraction DMSO Control | 0.9887 Fraction DMSO Control and 1.033 Fraction DMSO Control and 1.0461 Fraction DMSO Control and 0.981 Fraction DMSO Control and 0.9949 Fraction DMSO Control and 1.019 Fraction DMSO Control | 0.9887 Fraction DMSO Control and 0.9933 Fraction DMSO Control and 1.016 Fraction DMSO Control and 0.9805 Fraction DMSO Control and 0.9905 Fraction DMSO Control and 1.024 Fraction DMSO Control | 0.964 Fraction DMSO Control and 0.9895 Fraction DMSO Control and 1.009 Fraction DMSO Control and 1.011 Fraction DMSO Control and 0.9848 Fraction DMSO Control and 0.9995 Fraction DMSO Control | 0.9916 Fraction DMSO Control and 1.003 Fraction DMSO Control and 0.985 Fraction DMSO Control and 0.9785 Fraction DMSO Control and 0.9711 Fraction DMSO Control and 0.9946 Fraction DMSO Control | 0.8342 Fraction DMSO Control and 0.8793 Fraction DMSO Control and 0.8796 Fraction DMSO Control and 0.8381 Fraction DMSO Control and 0.8221 Fraction DMSO Control and 0.8915 Fraction DMSO Control | 0.8682 Fraction DMSO Control and 0.9316 Fraction DMSO Control and 0.8851 Fraction DMSO Control and 0.8718 Fraction DMSO Control and 0.8862 Fraction DMSO Control and 0.9022 Fraction DMSO Control | 0.8662 Fraction DMSO Control and 0.9027 Fraction DMSO Control and 0.8885 Fraction DMSO Control and 0.8759 Fraction DMSO Control and 0.8519 Fraction DMSO Control and 0.9047 Fraction DMSO Control | 5.3 | 4.3 min and 6.3 min | ≥ 100 µM | ≥ 25000 nM | 25 | 25 (≈ 7.59 µg/mL) | >=30.372 µg/ml | 
2 | Cc1ccc(S(=O)(=O)Nc2nnc(-c3ccc(F)cc3)o2)cc1 [MBX-4063] | >=33.334 µg/ml | 1.183 Fraction DMSO Control and 0.9487 Fraction DMSO Control and 1.005 Fraction DMSO Control | 1.094 Fraction DMSO Control and 0.958 Fraction DMSO Control and 0.97 Fraction DMSO Control | 1.091 Fraction DMSO Control and 0.9572 Fraction DMSO Control and 1.016 Fraction DMSO Control | 1.076 Fraction DMSO Control and 0.9091 Fraction DMSO Control and 0.9832 Fraction DMSO Control | 1.0577 Fraction DMSO Control and 0.9473 Fraction DMSO Control and 0.9636 Fraction DMSO Control | 1.026 Fraction DMSO Control and 0.9338 Fraction DMSO Control and 0.9374 Fraction DMSO Control | 1.123 Fraction DMSO Control and 0.9526 Fraction DMSO Control and 0.9567 Fraction DMSO Control | 1.06 Fraction DMSO Control and 0.9108 Fraction DMSO Control and 0.964 Fraction DMSO Control | <5 | <5 min | ≥ 100 µM | ≥ 25000 nM | 100 | 100 (≈ 33.3 µg/mL) | >=33.3 µg/ml | 
3 | O=C(Nc1nnc(C2CCCCC2)o1)c1ccc(Cl)cc1 [MBX-4370] | 0.4778 µg/mL and 0.9555 µg/mL | 1.07 Fraction DMSO Control and 1.036 Fraction DMSO Control and 1.021 Fraction DMSO Control and 1.042 Fraction DMSO Control and 1.024 Fraction DMSO Control and 0.9956 Fraction DMSO Control | 1.061 Fraction DMSO Control and 1.02 Fraction DMSO Control and 0.9814 Fraction DMSO Control and 1.082 Fraction DMSO Control and 1.03 Fraction DMSO Control and 0.9471 Fraction DMSO Control | 1.05 Fraction DMSO Control and 1.039 Fraction DMSO Control and 0.9574 Fraction DMSO Control and 1.045 Fraction DMSO Control and 1.018 Fraction DMSO Control and 0.9296 Fraction DMSO Control | 1.047 Fraction DMSO Control and 1.02 Fraction DMSO Control and 0.985 Fraction DMSO Control and 1.025 Fraction DMSO Control and 0.9985 Fraction DMSO Control and 0.9262 Fraction DMSO Control | 0.7981 Fraction DMSO Control and 0.8325 Fraction DMSO Control and 0.8129 Fraction DMSO Control and 0.8056 Fraction DMSO Control and 0.7525 Fraction DMSO Control and 0.7321 Fraction DMSO Control | 0.4723 Fraction DMSO Control and 0.5367 Fraction DMSO Control and 0.6164 Fraction DMSO Control and 0.4594 Fraction DMSO Control and 0.5425 Fraction DMSO Control and 0.5809 Fraction DMSO Control | 0.2465 Fraction DMSO Control and 0.3246 Fraction DMSO Control and 0.4191 Fraction DMSO Control and 0.3946 Fraction DMSO Control and 0.4088 Fraction DMSO Control and 0.4903 Fraction DMSO Control | 0.4495 Fraction DMSO Control and 0.5491 Fraction DMSO Control and 0.5315 Fraction DMSO Control and 0.5237 Fraction DMSO Control and 0.6389 Fraction DMSO Control and 0.5972 Fraction DMSO Control | <5 | <5 min | 18.1 µM and 19.4 µM and 21.8 µM and 14.3 µM and 14.5 µM and 13.7 µM | 120 nM and 122 nM and 145 nM | 50 | 50 (≈ 15.3 µg/mL) | 0.2388 µg/mL and 0.1196 µg/mL | Luminescence readout (Envision plate reader) ([5]; [Compound] 0.046875 µM): 496280 and 436160 and 442680; Luminescence readout (Envision plate reader) ([5]; [Compound] 0.0625 µM): 452080 and 467160 and 463360; Luminescence, background subtracted (DMSO control) ([5]; [Compound] 0.0625 µM): 23120 and 8920 and 25040; Luminescence readout (Envision plate reader) ([5]; [Compound] 0.09375 µM): 467480 and 440040 and 454600; Luminescence readout (Envision plate reader) ([5]; [Compound] 0.125 µM): 460600 and 443360 and 458920; Luminescence readout (Envision plate reader) ([5]; [Compound] 0.1875 µM): 449320 and 468280 and 463760; Luminescence, background subtracted (DMSO control) ([5]; [Compound] 0.1875 µM): 20360 and 10040 and 25440; Luminescence readout (Envision plate reader) ([5]; [Compound] 0.25 µM): 454000 and 469520 and 468760; Luminescence, background subtracted (DMSO control) ([5]; [Compound] 0.25 µM): 25040 and 11280 and 30440; Luminescence readout (Envision plate reader) ([5]; [Compound] 0.375 µM): 472720 and 482560 and 460640; Luminescence, background subtracted (DMSO control) ([5]; [Compound] 0.375 µM): 43760 and 24320 and 22320; Luminescence readout (Envision plate reader) ([5]; [Compound] 0.5 µM): 517120 and 524880 and 509520; Luminescence, background subtracted (DMSO control) ([5]; [Compound] 0.5 µM): 88160 and 66640 and 71200; Luminescence readout (Envision plate reader) ([5]; [Compound] 0.75 µM): 547920 and 542080 and 527800; Luminescence, background subtracted (DMSO control) ([5]; [Compound] 0.75 µM): 118960 and 83840 and 89480; Luminescence readout (Envision plate reader) ([5]; [Compound] 1 µM): 530760 and 535720 and 544960; Luminescence, background subtracted (DMSO control) ([5]; [Compound] 1 µM): 101800 and 77480 and 106640; Luminescence readout (Envision plate reader) ([5]; [Compound] 1.5 µM): 476080 and 424480 and 540520
